In patent publication US11708359B2, “Monoacylglycerol lipase modulators” (Janssen Pharmaceutica NV, priority 2020, dated 2023) one finds IC50 data, which are given here for 29 molecules.

Each structure is given as a SMILES string. Where two headings read alike, the source gives them in different places.

In this experiment the target is human MGL from HeLa cells (Homo sapiens (Human), UniProt Q99685). In words: MGL in vitro activity assay ([glycerol-1,3-3H]-oleoyl glycerol cleavage, activated carbon filter). Format: biochemical. On the procedure: The assay consists of combining endogenously expressed MGL from HeLa cells with test compounds, adding[glycerol-1,3-^3H]-oleoyl glycerol, incubating for one hour, and then measuring the amount of cleaved[1,3-^3H]-glycerol that passes through an activated carbon filter. The amount of cleaved, tritiated glycerol passing through the carbon filter is proportional to the activity of the MGL enzyme in a particular well/test condition.
Standard conditions for this assay combine 300 nM [Glycerol-1,3-^3H]-oleoyl glycerol with human MGL from HeLa cells and test compounds for one hour, after which the reaction is filtered through activated carbon and tritium is measured in the flow through. […] MGL is the predominant hydrolase in HeLa cells/cell homogenates.

Setting [1] is: 300 nM [Glycerol-1,3-3H]-oleoyl glycerol, endogenously expressed MGL from HeLa cells, one hour incubation, read-out: MGL IC50.

human MGL from HeLa cells, sequence (Q99685 whole entry): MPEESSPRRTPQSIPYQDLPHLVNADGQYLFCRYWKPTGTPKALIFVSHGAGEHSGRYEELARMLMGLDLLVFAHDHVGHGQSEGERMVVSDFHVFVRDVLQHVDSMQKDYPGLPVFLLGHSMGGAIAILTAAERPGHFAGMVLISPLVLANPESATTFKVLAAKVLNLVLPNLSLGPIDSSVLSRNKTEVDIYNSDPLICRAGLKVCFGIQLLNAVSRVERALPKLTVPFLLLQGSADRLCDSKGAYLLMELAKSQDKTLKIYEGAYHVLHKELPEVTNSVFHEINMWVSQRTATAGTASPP

Regarding `O=C1N[C@]2(CO1)C[C@H](C(=O)N1CC3CC3(c3ccccc3)C1)C2` (mixture of isomers) [Example 4, (rac)-(2s,4s)-2-(1-Phenyl-3-azabicyclo[3.1.0]hexane-3-carbonyl)-7-oxa-5-azaspiro[3.4]octan-6-one], under setting [1], the IC50 came out at 49 nM.
For `CC(C)c1cccc(C23CC2CN(C(=O)[C@H]2C[C@]4(COC(=O)N4)C2)C3)c1` (mixture of isomers) [Example 6, (rac)-(2s,4s)-2-(1-(3-Isopropylphenyl)-3-azabicyclo[3.1.0]hexane-3-carbonyl)-7-oxa-5-azaspiro[3.4]octan-6-one], the IC50 under setting [1] turned out to be 6.9 nM.
Take `CC(C)c1ccc(C23CC2CN(C(=O)[C@H]2C[C@]4(COC(=O)N4)C2)C3)cc1` (mixture of isomers) [Example 9, (rac)-(2s,4s)-2-(1-(4-Isopropylphenyl)-3-azabicyclo[3.1.0]hexane-3-carbonyl)-7-oxa-5-azaspiro[3.4]octan-6-one]: the IC50 under setting [1] was determined as 2.2 nM.
`CC(C)c1ccc(C23CC2CN(C(=O)[C@H]2C[C@]4(CCC(=O)N4)C2)C3)cc1` (mixture of isomers) [Example 12, (rac)-(2r,4s)-2-(1-(4-Isopropylphenyl)-3-azabicyclo[3.1.0]hexane-3-carbonyl)-5-azaspiro[3.4]octan-6-one]: the IC50 under setting [1] came to 14 nM.
Take `CC(C)(C)c1ccc(C23CC2CN(C(=O)[C@H]2C[C@]4(CCC(=O)N4)C2)C3)cc1` (mixture of isomers) [Example 13, (rac)-(2r,4s)-2-(1-(4-(tert-Butyl)phenyl)-3-azabicyclo[3.1.0]hexane-3-carbonyl)-5-azaspiro[3.4]octan-6-one]: under setting [1], the IC50 came to 9.2 nM.
With `O=C1N[C@]2(CO1)C[C@H](C(=O)N1CC3CC3(c3cccc(C4CC4)c3)C1)C2` (mixture of isomers) [Example 16, (rac)-(2s,4s)-2-(1-(3-Cyclopropylphenyl)-3-azabicyclo[3.1.0]hexane-3-carbonyl)-7-oxa-5-azaspiro[3.4]octan-6-one], the IC50 under setting [1] is 5.6 nM.
For the molecule `O=C1N[C@]2(CO1)C[C@H](C(=O)N1CC3CC3(c3ccc(C4CC4)cc3)C1)C2` (mixture of isomers) [Example 18, (rac)-(2s,4s)-2-(1-(4-Cyclopropylphenyl)-3-azabicyclo[3.1.0]hexane-3-carbonyl)-7-oxa-5-azaspiro[3.4]octan-6-one], the IC50 under setting [1] was 4.4 nM.
For the molecule `O=C1N[C@]2(CO1)C[C@H](C(=O)N1CC3CC3(c3cccc(OC(F)(F)F)c3)C1)C2` (mixture of isomers) [Example 19, (rac)-(2s,4s)-2-(1-(3-(Trifluoromethoxy)phenyl)-3-azabicyclo[3.1.0]hexane-3-carbonyl)-7-oxa-5-azaspiro[3.4]octan-6-one], under setting [1], the IC50 was 11 nM.
As for `Cc1ccccc1C12CC1CN(C(=O)[C@H]1C[C@]3(COC(=O)N3)C1)C2` (mixture of isomers) [Example 20, (rac)-(2s,4s)-2-(1-(o-Tolyl)-3-azabicyclo[3.1.0]hexane-3-carbonyl)-7-oxa-5-azaspiro[3.4]octan-6-one], under setting [1], the IC50 was determined as 6.5 nM.
For the molecule `Cc1cccc(C23CC2CN(C(=O)[C@H]2C[C@]4(COC(=O)N4)C2)C3)c1` (mixture of isomers) [Example 21, (rac)-(2s,4s)-2-(1-(m-Tolyl)-3-azabicyclo[3.1.0]hexane-3-carbonyl)-7-oxa-5-azaspiro[3.4]octan-6-one], the IC50 under setting [1] came out at 14 nM.
For the molecule `O=C1N[C@]2(CO1)C[C@H](C(=O)N1CC3CC3(c3ccc(OC(F)(F)F)cc3)C1)C2` (mixture of isomers) [Example 22, (rac)-(2s,4s)-2-(1-(4-(Trifluoromethoxy)phenyl)-3-azabicyclo[3.1.0]hexane-3-carbonyl)-7-oxa-5-azaspiro[3.4]octan-6-one], the IC50 under setting [1] was 16 nM.
Regarding `O=C1N[C@]2(CO1)C[C@H](C(=O)N1CC3CC3(c3cccc(C(F)(F)F)c3)C1)C2` (mixture of isomers) [Example 23, (rac)-(2s,4s)-2-(1-(3-(Trifluoromethyl)phenyl)-3-azabicyclo[3.1.0]hexane-3-carbonyl)-7-oxa-5-azaspiro[3.4]octan-6-one], under setting [1], the IC50 amounted to 14 nM.
In the case of `O=C1N[C@]2(CO1)C[C@H](C(=O)N1CC3CC3(c3ccc(C(F)(F)F)cc3)C1)C2` (mixture of isomers) [Example 24, (rac)-(2s,4s)-2-(1-(4-(Trifluoromethyl)phenyl)-3-azabicyclo[3.1.0]hexane-3-carbonyl)-7-oxa-5-azaspiro[3.4]octan-6-one], under setting [1], the IC50 came out at 15 nM.
For `Cc1ccc(C23CC2CN(C(=O)[C@H]2C[C@]4(COC(=O)N4)C2)C3)cc1C(F)(F)F` (mixture of isomers) [Example 25, (rac)-(2s,4s)-2-(1-(4-Methyl-3-(trifluoromethyl)phenyl)-3-azabicyclo[3.1.0]hexane-3-carbonyl)-7-oxa-5-azaspiro[3.4]octan-6-one], the IC50 under setting [1] is 3.6 nM.
Regarding `CC1(c2ccc(C34CC3CN(C(=O)[C@H]3C[C@]5(CCC(=O)N5)C3)C4)cc2)CC1` (mixture of isomers) [Example 27, (rac)-(2r,4s)-2-(1-(4-(1-Methylcyclopropyl)phenyl)-3-azabicyclo[3.1.0]hexane-3-carbonyl)-5-azaspiro[3.4]octan-6-one], the IC50 under setting [1] turned out to be 9.5 nM.
On to `O=C1N[C@]2(CO1)C[C@H](C(=O)N1CC3CC3(c3ccc(Oc4ccccc4)cc3)C1)C2` (mixture of isomers) [Example 28, (rac)-(2s,4s)-2-(1-(4-Phenoxyphenyl)-3-azabicyclo[3.1.0]hexane-3-carbonyl)-7-oxa-5-azaspiro[3.4]octan-6-one], for which, under setting [1], the IC50 was 1.7 nM.
For the molecule `O=C1N[C@]2(CO1)C[C@H](C(=O)N1CC3CC3(c3cccc(Oc4ccccc4)c3)C1)C2` (mixture of isomers) [Example 29, (rac)-(2s,4s)-2-(1-(3-Phenoxyphenyl)-3-azabicyclo[3.1.0]hexane-3-carbonyl)-7-oxa-5-azaspiro[3.4]octan-6-one], the IC50 under setting [1] was 1.5 nM.
On the same count and under the same terms, the value for `Cc1ccc(C23CC2CN(C(=O)[C@H]2C[C@]4(COC(=O)N4)C2)C3)cc1Cl` (mixture of isomers) [Example 30, (rac)-(2s,4s)-2-(1-(3-Chloro-4-methylphenyl)-3-azabicyclo[3.1.0]hexane-3-carbonyl)-7-oxa-5-azaspiro[3.4]octan-6-one] was 2.9 nM; that for `CC1(c2cccc(C34CC3CN(C(=O)[C@H]3C[C@]5(COC(=O)N5)C3)C4)c2)CC1` (mixture of isomers) [Example 31, (rac)-(2s,4s)-2-(1-(3-(1-Methylcyclopropyl)phenyl)-3-azabicyclo[3.1.0]hexane-3-carbonyl)-7-oxa-5-azaspiro[3.4]octan-6-one] was 1.1 nM; that for `Cc1cc(C(F)(F)F)ccc1C12CC1CN(C(=O)[C@H]1C[C@]3(COC(=O)N3)C1)C2` (mixture of isomers) [Example 33, (rac)-(2s,4s)-2-(1-(2-Methyl-4-(trifluoromethyl)phenyl)-3-azabicyclo[3.1.0]hexane-3-carbonyl)-7-oxa-5-azaspiro[3.4]octan-6-one] was 2.5 nM.
With `Cc1cc(OC(F)(F)F)ccc1C12CC1CN(C(=O)[C@H]1C[C@]3(COC(=O)N3)C1)C2` (mixture of isomers) [Example 34, (rac)-(2s,4s)-2-(1-(2-Methyl-4-(trifluoromethoxy)phenyl)-3-azabicyclo[3.1.0]hexane-3-carbonyl)-7-oxa-5-azaspiro[3.4]octan-6-one], the IC50 under setting [1] is 3.1 nM.
The same measure, in the same setting: to `Cc1cc(C23CC2CN(C(=O)[C@H]2C[C@]4(COC(=O)N4)C2)C3)ccc1OC(F)(F)F` (mixture of isomers) [Example 35, (rac)-(2s,4s)-2-(1-(3-Methyl-4-(trifluoromethoxy)phenyl)-3-azabicyclo[3.1.0]hexane-3-carbonyl)-7-oxa-5-azaspiro[3.4]octan-6-one] belongs 6.5 nM; to `Cc1cc(C23CC2CN(C(=O)[C@H]2C[C@]4(COC(=O)N4)C2)C3)ccc1C(F)(F)F` (mixture of isomers) [Example 36, (rac)-(2s,4s)-2-(1-(3-Methyl-4-(trifluoromethyl)phenyl)-3-azabicyclo[3.1.0]hexane-3-carbonyl)-7-oxa-5-azaspiro[3.4]octan-6-one], 3.2 nM; to `Cc1ccc(C23CC2CN(C(=O)[C@H]2C[C@]4(COC(=O)N4)C2)C3)cc1F` (mixture of isomers) [Example 37, (rac)-(2s,4s)-2-(1-(3-Fluoro-4-methylphenyl)-3-azabicyclo[3.1.0]hexane-3-carbonyl)-7-oxa-5-azaspiro[3.4]octan-6-one], 10 nM.
In the case of `O=C1N[C@]2(CO1)C[C@H](C(=O)N1CCC3(c4ccccc4)CC3C1)C2` (mixture of isomers) [Example 39, (rac)-(2s,4s)-2-(6-Phenyl-3-azabicyclo[4.1.0]heptane-3-carbonyl)-7-oxa-5-azaspiro[3.4]octan-6-one], the IC50 under setting [1] was determined as 20 nM.
For the molecule `Cc1cccc(C23CCN(C(=O)[C@H]4C[C@]5(COC(=O)N5)C4)CC2C3)c1` (mixture of isomers) [Example 43, (rac)-(2s,4s)-2-(6-(m-Tolyl)-3-azabicyclo[4.1.0]heptane-3-carbonyl)-7-oxa-5-azaspiro[3.4]octan-6-one], the IC50 under setting [1] turned out to be 8.2 nM.
Still for that read-out and setting: to `Cc1ccc(C23CCN(C(=O)[C@H]4C[C@]5(COC(=O)N5)C4)CC2C3)cc1F` (mixture of isomers) [Example 46, (rac)-(2s,4s)-2-(6-(3-Fluoro-4-methylphenyl)-3-azabicyclo[4.1.0]heptane-3-carbonyl)-7-oxa-5-azaspiro[3.4]octan-6-one] belongs 3.7 nM.
Molecule `O=C1N[C@]2(CO1)C[C@H](C(=O)N1CCC3(c4cccc(OC(F)(F)F)c4)CC3C1)C2` (mixture of isomers) [Example 49, (rac)-(2s,4s)-2-(6-(3-(Trifluoromethoxy)phenyl)-3-azabicyclo[4.1.0]heptane-3-carbonyl)-7-oxa-5-azaspiro[3.4]octan-6-one] came in with an IC50 of 1.6 nM.
On to `O=C1CC[C@]2(C[C@H](C(=O)N3CCC4(c5cccc(OC(F)(F)F)c5)CC4C3)C2)N1` (mixture of isomers) [Example 52, (rac)-(2r,4s)-2-(6-(3-(Trifluoromethoxy)phenyl)-3-azabicyclo[4.1.0]heptane-3-carbonyl)-5-azaspiro[3.4]octan-6-one], for which the IC50 under setting [1] is 4.8 nM.
